# Results: US6642227B2, “Inhibitors of c-Jun N-terminal kinases (JNK) and other protein kinases” (Vertex Pharmaceuticals Incorporated, priority 2001, dated 2003)
# Molecular target: T1, human Src kinase (Homo sapiens, UniProt P12931)
# T1 construct: full length recombinant human Src kinase; purchased Upstate Biotechnology 14-117; host or cells: baculovirus-infected cells
# Assay: Src inhibition assay (A: radioactivity-based or B: spectrophotometric coupled-enzyme assay)
# Format: biochemical
# Conditions: assay A or B not specified; inhibitor concentration not given
# Description: The compounds were evaluated as inhibitors of human Src kinase using either a radioactivity-based assay or spectrophotometric assay.
# The compounds were assayed as inhibitors of full length recombinant human Src kinase (from Upstate Biotechnology, cat. no. 14-117) expressed and purified from baculo viral cells. Src kinase activity was monitored by following the incorporation of ^33p from ATP into the tyrosine of a random poly Glu-Tyr polymer substrate of composition, Glu:Tyr=4:1 (Sigma, cat. no. P-0275). The following were the final concentrations of the assay components: 0.05 M HEPES, pH 7.6, 10 mM MgCl2, 2 mM DTT, 0.25 mg/ml BSA, 10 μM ATP (1-2 uCi ^33P-ATP per reaction), 5 mg/ml poly Glu-Tyr, and 1-2 units of recombinant human Src kinase. In a typical assay, all the reaction components with the exception of ATP were pre-mixed and aliquoted into assay plate wells.
# Inhibitors dissolved in DMSO were added to the wells to give a final DMSO concentration of 2.5%. The assay plate was incubated at 30° C. for 10 min before initiating the reaction with ^33P-ATP. After 20 min of reaction, the reactions were quenched with 150 μl of 10% trichloroacetic acid (TCA) containing 20 mM Na3PO4. The quenched samples were then transferred to a 96-well filter plate (Whatman, UNI-Filter GF/F Glass Fiber Filter, cat no. 7700-3310) installed on a filter plate vacuum manifold. Filter plates were washed four times with 10% TCA containing 20 mM Na3PO4 and then 4 times with methanol. 200 μl of scintillation fluid was then added to each well. The plates were sealed and the amount of radioactivity associated with the filters was quantified on a TopCount scintillation counter. The radioactivity incorporated was plotted as a function of the inhibitor concentration. The data was fitted to a competitive inhibition kinetics model to get the Ki for the compound.
# The ADP produced from ATP by the human recombinant Src kinase-catalyzed phosphorylation of poly Glu-Tyr substrate was quanitified using a coupled enzyme assay (Fox et al (1998) Protein Sci 7, 2249). In this assay one molecule of NADH is oxidised to NAD for every molecule of ADP produced in the kinase reaction. The disappearance of NADH can be conveniently followed at 340 nm.
# The following were the final concentrations of the assay components: 0.025 M HEPES, pH 7.6, 10 mM MgCl2, 2 mM DTT, 0.25 mg/ml poly Glu-Tyr, and 25 nM of recombinant human Src kinase. Final concentrations of the components of the coupled enzyme system were 2.5 mM phosphoenolpyruvate, 200 μM NADH, 30 μg/ml pyruvate kinase and 10 μg/ml lactate dehydrogenase.
# In a typical assay, all the reaction components with the exception of ATP were pre-mixed and aliquoted into assay plate wells. Inhibitors dissolved in DMSO were added to the wells to give a final DMSO concentration of 2.5%. The assay plate was incubated at 30 C. for 10 min before initiating the reaction with 100 μM ATP. The absorbance change at 340 nm with time, the rate of the reaction, was monitored on a molecular devices plate reader. The data of rate as a function of the inhibitor concentration was fitted to compettive inhibition kinetics model to get the Ki for the compound.
# T1 sequence (P12931 whole entry): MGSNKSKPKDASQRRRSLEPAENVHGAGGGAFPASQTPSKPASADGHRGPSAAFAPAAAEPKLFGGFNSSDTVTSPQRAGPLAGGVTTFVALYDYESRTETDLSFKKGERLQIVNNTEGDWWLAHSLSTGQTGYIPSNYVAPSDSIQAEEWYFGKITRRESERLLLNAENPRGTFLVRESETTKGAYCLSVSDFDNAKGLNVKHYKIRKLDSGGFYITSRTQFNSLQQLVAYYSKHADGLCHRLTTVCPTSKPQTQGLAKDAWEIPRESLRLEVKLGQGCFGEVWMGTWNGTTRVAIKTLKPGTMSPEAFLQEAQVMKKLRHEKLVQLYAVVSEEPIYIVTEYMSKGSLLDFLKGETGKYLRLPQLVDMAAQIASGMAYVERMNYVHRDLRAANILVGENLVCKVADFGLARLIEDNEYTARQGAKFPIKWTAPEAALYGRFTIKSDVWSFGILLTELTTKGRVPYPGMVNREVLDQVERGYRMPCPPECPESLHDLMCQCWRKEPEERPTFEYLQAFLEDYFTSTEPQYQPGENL
row,SMILES,Src Activity (percent inhibition class D-F)
1,"CSc1sc(-c2ccnc(Nc3ccccc3)n2)c(-c2ccc(Cl)cc2)c1C#N [IIa-10, 2-Methylsulfanyl-5-(2-phenylamino-pyrimidin-4-yl)-4-(4-chloro-phenyl)-thiophene-3-carbonitrile]",F (compounds having an activity designated as “F” provided a provided a percent inhibition of between 67% and 100%)
2,"CCOc1sc(-c2ccnc(Nc3ccccc3)n2)c(-c2ccc(Cl)cc2)c1C#N [IIa-11, 2-Ethoxy-5-(2-phenylamino-pyrimidin-4-yl)-4-(4-chloro-phenyl)-thiophene-3-carbonitrile]",F (compounds having an activity designated as “F” provided a provided a percent inhibition of between 67% and 100%)
3,"CSc1sc(-c2ccnc(Nc3ccccc3)n2)c(-c2ccc(C)cc2)c1C#N [IIa-14, 2-Methylsulfanyl-5-(2-phenylamino-pyrimidin-4-yl)-4-p-tolyl-thiophene-3-carbonitrile]",F (compounds having an activity designated as “F” provided a provided a percent inhibition of between 67% and 100%)
4,"CCOc1sc(-c2ccnc(Nc3ccccc3)n2)c(-c2ccc(C)cc2)c1C#N [IIa-15, 2-Ethoxy-5-(2-phenylamino-pyrimidin-4-yl)-4-p-tolyl-thiophene-3-carbonitrile]",F (compounds having an activity designated as “F” provided a provided a percent inhibition of between 67% and 100%)
